Among the test systems are A498 renal; HCC-2998 colon; IGROV1 ovarian; LOX IMVI melanoma; MDA-N; NCI-H460 lung; NCI-H522 lung; PC-3 prostate; SF-539 CNS; SNB-75 CNS; SW-620 colon; TK-10 renal.
What all share (assay): NCI-60 cell line screen, 48 h

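Five concentrations, 48 hours, 96-well plates. Abbreviation: GI50, concentration required for 50% inhibition of growth. TGI marks complete inhibition of growth.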

Consider `Cc1ccc(S(=O)(=O)N2C3C=CC(C3)[C@@H]2C(Cl)(Cl)Cl)cc1` (some centres undefined), for which, in the experiment with A498 renal, the GI50 is 11.8 µM. Moreover, the TGI is 47.5 µM in the experiment with A498 renal; 48.7 µM with HCC-2998 colon; over 71 µM in the experiment with IGROV1 ovarian; 33.2 µM in the experiment with LOX IMVI melanoma; 86.9 µM in the experiment on MDA-N; 35.5 µM with NCI-H460 lung. The TGI in the experiment on NCI-H522 lung was 41.3 µM; with PC-3 prostate, over 70.3 µM; with SF-539 CNS it was 30 µM; in the experiment with SNB-75 CNS, 51.2 µM; in the experiment on SW-620 colon it was 44.9 µM; with TK-10 renal it was over 100 µM.

In the case of `CC(C)=C[C@H]1C[C@H](C)[C@H]2CC[C@H](C)c3c2c1c(C)c1ncoc31`, the TGI worked out at 34.9 µM in the experiment with A498 renal; 35.8 µM in the experiment on HCC-2998 colon; 27 µM with IGROV1 ovarian; 37.7 µM in the experiment on LOX IMVI melanoma; 34.2 µM with MDA-N; 35.6 µM in the experiment with NCI-H460 lung. Also, the TGI in the experiment on NCI-H522 lung was found to be 31.5 µM; in the experiment with PC-3 prostate it was 35.2 µM; with SF-539 CNS, 32.5 µM; with SNB-75 CNS, 36.2 µM; in the experiment on SW-620 colon, 36 µM; with TK-10 renal, 31.7 µM.

Consider `CC1=C/C(=N\NC(N)=S)C(C(O)(C(F)(F)F)C(F)(F)F)C(C)(C)C1` (centres undefined), for which the TGI in the experiment with A498 renal, in the experiment on HCC-2998 colon, in the experiment on IGROV1 ovarian, in the experiment with LOX IMVI melanoma, in the experiment on MDA-N and in the experiment with NCI-H460 lung was over 10 µM each time. In addition, the TGI in the experiment with NCI-H522 lung, in the experiment with PC-3 prostate, in the experiment with SF-539 CNS, with SNB-75 CNS, in the experiment on SW-620 colon and in the experiment on TK-10 renal was over 10 µM each time.

On to `O=C1SC(SCc2ccccc2)=NC12CC2c1ccccc1` (centres undefined), for which the TGI was determined as 65.1 µM in the experiment on A498 renal; 28.8 µM with HCC-2998 colon; 52.6 µM with IGROV1 ovarian; 38 µM in the experiment with LOX IMVI melanoma; 49 µM in the experiment with MDA-N; 41.4 µM in the experiment on NCI-H460 lung. The TGI was 33.5 µM in the experiment on NCI-H522 lung; over 66.8 µM in the experiment with PC-3 prostate; 37.7 µM in the experiment with SF-539 CNS; 71.6 µM with SNB-75 CNS; 53.3 µM in the experiment with SW-620 colon; 81.1 µM in the experiment with TK-10 renal.

For `COc1ccccc1CC(=O)C(O)(C(F)(F)F)C(F)(F)F`, the TGI in the experiment with A498 renal, in the experiment with HCC-2998 colon, in the experiment with IGROV1 ovarian, in the experiment on LOX IMVI melanoma, in the experiment with MDA-N and with NCI-H460 lung was over 100 µM in each case. Also, the TGI with NCI-H522 lung, in the experiment on PC-3 prostate, in the experiment on SF-539 CNS, in the experiment on SNB-75 CNS, with SW-620 colon and in the experiment on TK-10 renal was over 100 µM throughout.

Take `CCOC(=O)CCC(NC(=O)C(N)Cc1ccc(N(CCCl)CCCl)cc1)C(=O)OCC` (centres undefined): the TGI in the experiment on A498 renal was over 100 µM; in the experiment on HCC-2998 colon, 2.23 µM; in the experiment on IGROV1 ovarian, 3.93 µM; in the experiment with LOX IMVI melanoma it was 1.63 µM; with MDA-N, 4.98 µM; with NCI-H460 lung, 4.09 µM. Also, the TGI in the experiment on NCI-H522 lung was 0.853 µM; in the experiment with PC-3 prostate, 7.9 µM; with SF-539 CNS, 3.38 µM; in the experiment on SNB-75 CNS it was 2.79 µM; in the experiment with SW-620 colon, 5.3 µM; in the experiment with TK-10 renal, 4.41 µM.

In the case of `N=c1oc2ccccc2cc1C(=O)NC12CC3CC(CC(C3)C1)C2`, the TGI with A498 renal is over 82.1 µM; with HCC-2998 colon, 28.7 µM; with IGROV1 ovarian, over 65.6 µM; in the experiment on LOX IMVI melanoma, over 59.8 µM; in the experiment with MDA-N, over 100 µM; in the experiment on NCI-H460 lung, 31.4 µM. In addition, the TGI with NCI-H522 lung is 14.8 µM; in the experiment with PC-3 prostate it was over 68.9 µM; in the experiment on SF-539 CNS, 42 µM; with SNB-75 CNS, 71.3 µM; in the experiment with SW-620 colon it was over 100 µM; with TK-10 renal it was 43.5 µM.

Regarding `O=c1[nH]c(=O)n(C2COC(CO)C2O)cc1F` (centres undefined), the TGI with A498 renal, in the experiment on HCC-2998 colon, with IGROV1 ovarian, with LOX IMVI melanoma, in the experiment on MDA-N and in the experiment with NCI-H460 lung was over 100 µM in each case. For the same compound, the TGI in the experiment with NCI-H522 lung, in the experiment on PC-3 prostate, in the experiment on SF-539 CNS, in the experiment with SNB-75 CNS, in the experiment with SW-620 colon and with TK-10 renal was over 100 µM throughout.

Consider `CCOC(=O)/C(C#N)=C/c1coc2cc(C)cc(C)c2c1=O`, for which the TGI with A498 renal, in the experiment with HCC-2998 colon, in the experiment on IGROV1 ovarian, in the experiment on LOX IMVI melanoma, in the experiment on MDA-N and in the experiment on NCI-H460 lung was over 100 µM throughout. The TGI in the experiment on NCI-H522 lung, with PC-3 prostate, with SF-539 CNS, with SNB-75 CNS, with SW-620 colon and in the experiment with TK-10 renal was over 100 µM in each case.
